Source: ChEMBL document CHEMBL4602617, “Discovery and optimization of heteroaryl piperazines as potent and selective PI3Kδ inhibitors” (Bioorg Med Chem Lett, 2020)

Columns and labels:
[1] = Oral bioavailability in dog at 0.5 mg/kg; assay type: ADME, organism-based, Canis lupus familiaris; conditions: in vivo
[2] = target: Voltage-dependent L-type calcium channel subunit alpha-1C (Homo sapiens, UniProt Q13936); assay: Inhibition of Cav1.2 (unknown origin)
Cytochrome P450 3A4 = Cytochrome P450 3A4 (Homo sapiens, UniProt P08684); assay: Inhibition of CYP3A4 (unknown origin); assay type: ADME
[3] = target: Serine/threonine-protein kinase BRSK1 (Homo sapiens, UniProt Q8TDC3); assay: Inhibition of recombinant GST-tagged human BRSK1 expressed in baculovirus expression system using Ser/Thr-21 as substrate after 1 hr in presence of ATP by Z'-LYTE assay
[4] = target: Serine/threonine-protein kinase B-raf (Homo sapiens, UniProt P15056, V600E); assay: Inhibition of […] N-terminal GST-tagged human BRAF V599E mutant (416 to 766 residues) expressed in baculovirus expression system using Ser/Thr 03 as substrate after 1 hr in presence of ATP by Z'-LYTE assay
[5] = target: Serine/threonine-protein kinase B-raf (Homo sapiens, UniProt P15056); assay: Inhibition of recombinant full length human GST-tagged BRAF expressed in baculovirus expression system using tyrosine-1 peptide as substrate incubated for 60 mins in presence of ATP by Z'-LYTE assay
[6] = target: RAC-gamma serine/threonine-protein kinase (Homo sapiens, UniProt Q9Y243); assay: Inhibition of recombinant full length human His-tagged AKT3 expressed in baculovirus expression system using Ser/Thr-06 peptide as substrate incubated for 60 mins in presence of ATP by Z'-LYTE assay
RAC-gamma serine/threonine-protein kinase, sequence (Q9Y243 whole entry): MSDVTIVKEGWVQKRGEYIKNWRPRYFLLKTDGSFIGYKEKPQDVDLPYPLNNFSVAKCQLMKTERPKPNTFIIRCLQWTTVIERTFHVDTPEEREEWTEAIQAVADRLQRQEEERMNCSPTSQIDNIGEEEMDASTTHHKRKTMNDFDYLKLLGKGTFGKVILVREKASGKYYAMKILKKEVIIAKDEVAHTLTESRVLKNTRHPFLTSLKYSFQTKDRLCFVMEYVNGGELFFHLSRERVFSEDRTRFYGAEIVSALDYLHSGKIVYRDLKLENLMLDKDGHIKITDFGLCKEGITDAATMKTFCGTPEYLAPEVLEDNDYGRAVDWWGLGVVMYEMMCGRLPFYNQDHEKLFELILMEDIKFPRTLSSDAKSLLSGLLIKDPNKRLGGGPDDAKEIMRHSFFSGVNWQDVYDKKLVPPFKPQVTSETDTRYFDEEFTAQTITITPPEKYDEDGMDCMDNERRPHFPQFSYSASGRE

[7] = target: RAC-beta serine/threonine-protein kinase (Homo sapiens, UniProt P31751); assay: Inhibition of recombinant full length human His-tagged AKT2 expressed in baculovirus expression system using Ser/Thr-06 peptide as substrate incubated for 60 mins in presence of ATP by Z'-LYTE assay
[8] = target: Glycogen synthase kinase-3 beta (Homo sapiens, UniProt P49841); assay: Inhibition of recombinant full length human His-tagged GSK3beta expressed in baculovirus expression system using serine/threonine-9 peptide as substrate incubated for 60 mins in presence of ATP by Z'-LYTE assay
[9] = target: Substance-K receptor (Homo sapiens) (UniProt P21452); assay: Inhibition of human NK2 receptor at 10 uM relative to control
[10] = target: Prostacyclin receptor (Homo sapiens) (UniProt P43119); assay: Inhibition of human prostanoid IP receptor at 10 uM relative to control
Mesocricetus auratus = species on record: Mesocricetus auratus; assay: Displacement of [3H]glyburide from KATP receptor in HIT-T15 Syrian hamster pancreatic B cell membranes at 10 uM after 120 mins by radiometric scintillation analysis relative to control
[11] = target: Melanocortin receptor 5 (Homo sapiens) (UniProt P33032); assay: Displacement of [125I]NDP-alpha-MSH from full length human recombinant MC5 receptor expressed in HEK293 cells at 10 uM measured after 120 mins by radiometric scintillation analysis relative to control; assay type: cell-based
Rattus norvegicus = species on record: Rattus norvegicus; assay: Displacement of [3H]CGP-54626 from GABAB in Wistar rat whole brain at 10 uM incubated for 20 mins by radiometric scintillation analysis relative to control; assay type: tissue-based
[12] = target: Alpha-2C adrenergic receptor (Homo sapiens) (UniProt P18825); assay: Displacement of [3H]rauwolscine from full-length recombinant human alpha2C receptor expressed in CHOK1 cells at 10 uM measured after 60 mins by scintillation counting method relative to control; assay type: cell-based; conditions: CHO-K1
[13] = target: Alpha-1A adrenergic receptor (Rattus norvegicus) (UniProt P43140); assay: Displacement of [3H]prazosin from alpha1a adrenergic receptor in Wistar rat submaxillary gland membranes at 10 uM measured after 60 mins by scintillation counting method relative to control; assay type: cell membranes; conditions: Membrane
[14] = target: Serine/threonine-protein kinase Chk1 (Homo sapiens, UniProt O14757); assay: Inhibition of recombinant human full-length His-tagged CHEK1 expressed in baculovirus expression system using FRET-labeled Ser/Thr 19 peptide as substrate measured after 1 hr in presence of ATP by Z'-lyte assay
[15] = target: Epidermal growth factor receptor (Homo sapiens, UniProt P00533, L858R); assay: Inhibition of human recombinant GST-tagged EGFR L858R mutant expressed in baculovirus expression system using tyrosine 4 peptide as substrate after 60 mins in presence of ATP FRET based Z'-LYTE assay
Ephrin type-A receptor 4 = Ephrin type-A receptor 4 (Homo sapiens, UniProt P54764); assay: Inhibition of recombinant human GST-tagged EPHA4 cytoplasmic domain expressed in baculovirus expression system using tyrosine-02 peptide as substrate incubated for 60 mins in presence of ATP by Z'-Lyte assay
Ephrin type-A receptor 4, sequence (P54764 whole entry, the tested form may be a part): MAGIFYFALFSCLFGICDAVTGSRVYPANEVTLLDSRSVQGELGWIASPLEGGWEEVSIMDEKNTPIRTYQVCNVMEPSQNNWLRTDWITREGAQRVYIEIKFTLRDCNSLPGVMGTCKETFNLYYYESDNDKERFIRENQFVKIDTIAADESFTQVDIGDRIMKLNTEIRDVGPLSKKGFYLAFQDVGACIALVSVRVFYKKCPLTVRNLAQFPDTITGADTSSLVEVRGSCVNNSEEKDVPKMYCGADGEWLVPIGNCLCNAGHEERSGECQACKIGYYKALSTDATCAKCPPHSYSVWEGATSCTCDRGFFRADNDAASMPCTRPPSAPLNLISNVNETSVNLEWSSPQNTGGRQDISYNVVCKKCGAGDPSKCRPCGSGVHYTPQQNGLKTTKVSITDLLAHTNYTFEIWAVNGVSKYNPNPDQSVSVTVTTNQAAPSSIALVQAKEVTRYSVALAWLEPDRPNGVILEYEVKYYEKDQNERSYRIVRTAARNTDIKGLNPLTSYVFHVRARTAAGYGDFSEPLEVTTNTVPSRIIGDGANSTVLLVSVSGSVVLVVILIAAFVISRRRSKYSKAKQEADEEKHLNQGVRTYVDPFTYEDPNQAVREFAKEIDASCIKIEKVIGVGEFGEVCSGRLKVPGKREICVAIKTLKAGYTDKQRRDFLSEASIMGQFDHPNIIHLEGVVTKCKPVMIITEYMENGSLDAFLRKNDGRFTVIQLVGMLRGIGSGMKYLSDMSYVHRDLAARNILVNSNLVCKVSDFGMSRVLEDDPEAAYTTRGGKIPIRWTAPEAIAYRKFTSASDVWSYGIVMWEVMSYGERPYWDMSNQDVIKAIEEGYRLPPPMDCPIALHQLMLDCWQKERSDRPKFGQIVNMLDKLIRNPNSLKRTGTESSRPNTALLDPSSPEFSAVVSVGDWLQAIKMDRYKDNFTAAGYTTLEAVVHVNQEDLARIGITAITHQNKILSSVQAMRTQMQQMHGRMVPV

[16] = target: Homeodomain-interacting protein kinase 2 (Homo sapiens, UniProt Q9H2X6); assay: Inhibition of recombinant human GST-tagged HIPK2 expressed in baculovirus expression system using serine/threonine-9 peptide as substrate incubated for 60 mins in presence of ATP by Z'-LYTE assay
[17] = target: Insulin receptor-related protein (Homo sapiens, UniProt P14616); assay: Inhibition of recombinant human GST-tagged INSRR cytoplasmic domain expressed in baculovirus expression system using tyrosine-1 peptide as substrate incubated for 60 mins in presence of ATP by Z'-LYTE assay
[18] = target: Mitogen-activated protein kinase 14 (Homo sapiens, UniProt Q16539); assay: Inhibition of recombinant full length GST-tagged human inactive MAPK14 expressed in Escherichia coli using Ser/Thr 04 as substrate after 1 hr in presence of ATP by Z'LYTE assay
[19] = target: Serine/threonine-protein kinase MARK1 (Homo sapiens, UniProt Q9P0L2); assay: Inhibition of recombinant full length human GST-tagged MARK1 expressed in baculovirus expression system using serine/threonine-21 peptide as substrate incubated for 60 mins in presence of ATP by Z'-LYTE assay
[20] = target: Serine/threonine-protein kinase PLK3 (Homo sapiens, UniProt Q9H4B4); assay: Inhibition of recombinant human GST-tagged PLK3 catalytic domain (58 to 340 residues) expressed in baculovirus expression system using serine/threonine-16 peptide as substrate incubated for 60 mins in presence of ATP by Z'-LYTE assay
[21] = target: Serine/threonine-protein kinase D2 (Homo sapiens, UniProt Q9BZL6); assay: Inhibition of recombinant full length human GST-tagged PRKD2 expressed in baculovirus expression system using serine/threonine-01 peptide as substrate incubated for 60 mins in presence of ATP by Z'-LYTE assay
Serine/threonine-protein kinase D2, sequence (Q9BZL6 whole entry): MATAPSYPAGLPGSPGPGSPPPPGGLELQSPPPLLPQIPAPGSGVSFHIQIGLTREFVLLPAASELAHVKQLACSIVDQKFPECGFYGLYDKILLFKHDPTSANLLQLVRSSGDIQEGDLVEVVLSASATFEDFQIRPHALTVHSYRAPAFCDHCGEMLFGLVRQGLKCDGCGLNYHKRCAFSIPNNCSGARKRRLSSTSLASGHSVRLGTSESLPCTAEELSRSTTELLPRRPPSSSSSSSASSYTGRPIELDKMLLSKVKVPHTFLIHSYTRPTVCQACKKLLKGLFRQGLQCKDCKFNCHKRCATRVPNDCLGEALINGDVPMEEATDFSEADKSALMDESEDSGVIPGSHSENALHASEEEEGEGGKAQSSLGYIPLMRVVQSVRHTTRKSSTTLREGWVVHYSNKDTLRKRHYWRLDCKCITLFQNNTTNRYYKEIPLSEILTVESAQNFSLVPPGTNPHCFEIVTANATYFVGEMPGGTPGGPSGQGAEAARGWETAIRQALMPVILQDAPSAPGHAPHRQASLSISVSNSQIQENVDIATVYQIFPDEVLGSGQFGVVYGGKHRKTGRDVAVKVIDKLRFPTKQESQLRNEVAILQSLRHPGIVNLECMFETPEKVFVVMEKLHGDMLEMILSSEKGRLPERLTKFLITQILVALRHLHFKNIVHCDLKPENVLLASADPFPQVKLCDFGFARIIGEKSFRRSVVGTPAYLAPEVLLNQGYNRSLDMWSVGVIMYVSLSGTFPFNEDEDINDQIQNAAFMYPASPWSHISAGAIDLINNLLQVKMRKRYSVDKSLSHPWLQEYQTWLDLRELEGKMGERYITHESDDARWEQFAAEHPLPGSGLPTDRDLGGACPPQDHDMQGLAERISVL

[22] = target: Protein-tyrosine kinase 6 (Homo sapiens, UniProt Q13882); assay: Inhibition of recombinant full length human His-tagged BRK expressed in baculovirus expression system using tyr01 peptide as substrate incubated for 60 mins in presence of ATP by Z'-LYTE assay
[23] = target: Testis-specific serine/threonine-protein kinase 1 (Homo sapiens, UniProt Q9BXA7); assay: Inhibition of recombinant full length human His-tagged TSSK1 expressed in baculovirus expression system using serine/threonine-4 peptide as substrate incubated for 60 mins in presence of ATP by Z'-LYTE assay
Testis-specific serine/threonine-protein kinase 1, sequence (Q9BXA7 whole entry): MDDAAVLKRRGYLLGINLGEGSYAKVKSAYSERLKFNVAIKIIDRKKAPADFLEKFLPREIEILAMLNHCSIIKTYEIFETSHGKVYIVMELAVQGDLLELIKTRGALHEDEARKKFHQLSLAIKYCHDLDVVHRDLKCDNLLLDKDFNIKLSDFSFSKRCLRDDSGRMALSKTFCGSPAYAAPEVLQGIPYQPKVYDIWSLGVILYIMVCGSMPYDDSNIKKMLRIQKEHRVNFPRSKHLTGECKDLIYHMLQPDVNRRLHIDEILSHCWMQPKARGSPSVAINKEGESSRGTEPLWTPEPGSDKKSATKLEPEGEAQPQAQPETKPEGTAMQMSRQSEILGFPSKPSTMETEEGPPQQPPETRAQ

Voltage-dependent L-type calcium channel subunit alpha-1C, sequence (Q13936 whole entry): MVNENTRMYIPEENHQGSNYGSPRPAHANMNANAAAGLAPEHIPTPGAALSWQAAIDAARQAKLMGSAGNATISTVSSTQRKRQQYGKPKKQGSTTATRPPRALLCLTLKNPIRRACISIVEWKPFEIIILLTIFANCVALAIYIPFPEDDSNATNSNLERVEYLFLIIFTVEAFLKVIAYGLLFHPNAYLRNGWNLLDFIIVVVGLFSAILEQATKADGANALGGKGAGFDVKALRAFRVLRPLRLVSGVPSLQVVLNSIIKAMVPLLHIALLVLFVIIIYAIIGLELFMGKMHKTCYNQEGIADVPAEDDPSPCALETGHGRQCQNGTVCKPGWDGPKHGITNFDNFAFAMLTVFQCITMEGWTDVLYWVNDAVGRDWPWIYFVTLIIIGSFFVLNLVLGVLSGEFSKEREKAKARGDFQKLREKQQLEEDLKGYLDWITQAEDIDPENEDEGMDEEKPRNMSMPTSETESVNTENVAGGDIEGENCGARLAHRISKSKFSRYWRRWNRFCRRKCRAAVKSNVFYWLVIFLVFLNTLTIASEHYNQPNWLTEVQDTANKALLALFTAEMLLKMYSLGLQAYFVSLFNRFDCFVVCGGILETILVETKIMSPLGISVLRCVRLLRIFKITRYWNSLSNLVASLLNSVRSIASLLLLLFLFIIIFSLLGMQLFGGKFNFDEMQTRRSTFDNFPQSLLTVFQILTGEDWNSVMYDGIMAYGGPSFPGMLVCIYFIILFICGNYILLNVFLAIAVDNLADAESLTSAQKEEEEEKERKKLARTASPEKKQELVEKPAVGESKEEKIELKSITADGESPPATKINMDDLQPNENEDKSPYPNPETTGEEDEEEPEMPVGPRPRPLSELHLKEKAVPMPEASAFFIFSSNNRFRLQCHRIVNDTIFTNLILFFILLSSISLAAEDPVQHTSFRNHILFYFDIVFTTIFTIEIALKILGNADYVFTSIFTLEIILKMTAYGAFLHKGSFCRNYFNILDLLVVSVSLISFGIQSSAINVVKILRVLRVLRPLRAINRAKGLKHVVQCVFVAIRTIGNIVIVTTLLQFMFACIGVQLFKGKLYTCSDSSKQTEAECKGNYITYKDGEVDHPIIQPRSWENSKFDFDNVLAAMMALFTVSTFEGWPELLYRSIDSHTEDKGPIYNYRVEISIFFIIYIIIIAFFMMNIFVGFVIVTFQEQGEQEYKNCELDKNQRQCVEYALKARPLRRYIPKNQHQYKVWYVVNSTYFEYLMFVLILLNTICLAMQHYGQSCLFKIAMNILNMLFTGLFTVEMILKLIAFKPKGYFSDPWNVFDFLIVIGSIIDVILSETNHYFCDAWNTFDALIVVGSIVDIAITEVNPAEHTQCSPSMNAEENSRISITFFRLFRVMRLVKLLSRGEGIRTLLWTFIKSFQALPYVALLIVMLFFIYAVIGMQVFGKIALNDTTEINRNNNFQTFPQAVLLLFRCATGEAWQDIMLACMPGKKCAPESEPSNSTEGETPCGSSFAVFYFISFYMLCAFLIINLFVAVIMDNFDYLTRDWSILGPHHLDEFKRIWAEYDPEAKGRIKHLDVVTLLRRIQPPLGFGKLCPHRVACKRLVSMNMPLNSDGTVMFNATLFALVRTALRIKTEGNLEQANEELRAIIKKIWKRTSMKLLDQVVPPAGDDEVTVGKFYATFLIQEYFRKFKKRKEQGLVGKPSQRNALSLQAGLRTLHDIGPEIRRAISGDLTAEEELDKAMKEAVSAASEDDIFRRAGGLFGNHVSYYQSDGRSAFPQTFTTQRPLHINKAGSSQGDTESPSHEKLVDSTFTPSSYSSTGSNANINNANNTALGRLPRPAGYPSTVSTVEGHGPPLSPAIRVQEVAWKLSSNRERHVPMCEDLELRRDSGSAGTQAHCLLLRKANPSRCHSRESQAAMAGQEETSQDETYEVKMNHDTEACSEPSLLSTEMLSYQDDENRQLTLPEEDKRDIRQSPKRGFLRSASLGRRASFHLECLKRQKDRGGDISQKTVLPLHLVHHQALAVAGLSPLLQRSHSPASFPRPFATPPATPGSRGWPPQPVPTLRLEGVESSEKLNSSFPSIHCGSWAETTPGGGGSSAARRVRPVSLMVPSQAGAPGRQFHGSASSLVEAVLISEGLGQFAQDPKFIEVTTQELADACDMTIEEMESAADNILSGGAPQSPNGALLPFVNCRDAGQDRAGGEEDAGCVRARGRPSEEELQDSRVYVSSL

Work on C[C@@H]1C[C@H]1C(=O)N1CCN(c2cnc(C#N)c(-c3cnn(C)c3)n2)C[C@H]1C yielded a bioavailability [1] of 100%, an IC50 [2] greater than 30 µM and an IC50 (Cytochrome P450 3A4) greater than 50 µM. It also gave an IC50 [3] greater than 100 µM, an IC50 [4] greater than 100 µM and an IC50 [5] greater than 100 µM. The IC50 [6] was greater than 100 µM, the IC50 [7] was greater than 100 µM and the IC50 [8] was 28.1 µM. The inhibition [9] was 1%, the inhibition [10] was -1% and the inhibition (Mesocricetus auratus) was -1%. For the same compound, the inhibition [11] was 22%, the inhibition (Rattus norvegicus) was -2% and the inhibition [12] was 5%. The inhibition [13] was -7%, the IC50 [14] was greater than 100 µM and the IC50 [15] was greater than 100 µM. The IC50 (Ephrin type-A receptor 4) was greater than 100 µM, the IC50 [16] was greater than 100 µM and the IC50 [17] was greater than 100 µM. For the same compound, the IC50 [18] was greater than 100 µM, the IC50 [19] was greater than 100 µM and the IC50 [20] was greater than 100 µM. The IC50 [21] was greater than 100 µM, the IC50 [22] was greater than 100 µM and the IC50 [23] was greater than 100 µM.
